{"source": "patent US9221875B2", "about": "“Amphiphilic peptides for treatment of keratitis” (Agency for Science, Technology and Research, priority 2013, dated 2015)", "key": {"C. albicans [1]": {"test_system": "C. albicans", "conditions": "42 h"}, "[2]": {"assay": "Stability testing, autoclave and 6 weeks at room temperature, MALDI-TOF MS", "assay_type": "physicochemical", "conditions": "121° C. 15 min, 2 mg/mL, no protection from light", "procedure": "Peptides 1 and 2 were dissolved in HPLC-grade water at 2 mg/mL, subjected to a standard steam sterilization autoclave cycle at 121° C. for 15 min, and allowed to stand at room temperature for a period of 6 weeks. The integrity of the peptides was determined by evaluating their molecular weights via MALDI-TOF MS before and after treatment."}, "C. albicans [3]": {"test_system": "C. albicans", "assay": "In vitro killing kinetics", "assay_type": "cell-based, Candida albicans", "procedure": "The killing kinetics test was performed to evaluate the antimicrobial activities of peptides against C. albicans. Yeast solution was re-suspended in YMB (Difco) to achieve from 10^5 to 10^6 CFU mL^−1. […] Each dilution (20 μL) was plated on agar plate, and incubated 2 days. Surviving colonies were counted after incubation. An untreated inoculum group was used as a negative control. Tests were conducted in triplicates, and the results were presented as killing efficiency (%)."}, "E. coli [4]": {"test_system": "E. coli", "conditions": "18 h"}, "S. aureus [5]": {"test_system": "S. aureus", "conditions": "18 h"}, "S. epidermidis [6]": {"test_system": "S. epidermidis", "conditions": "18 h"}, "P. aeruginosa [7]": {"test_system": "P. aeruginosa", "conditions": "18 h"}, "F. solani": {"test_system": "F. solani", "assay_type": "cell-based", "conditions": "24 h", "procedure": "(§1) The MICs of peptides were determined against the fungi C. albicans (American Type Culture Collection, ATCC) and F. solani (ATCC) by the broth microdilution method. […] F. solani, were cultured on sabouraud dextrose agar plates in incubator at 37° C. To collect conidia following incubation, conidia of F. solani species were harvested and standardized to 1×10^8 spores/ml before performing the experiments. Sabouraud dextrose broth (90 μL) was added to the wells of culture plates. […] The plates were incubated at 37° C. and examined macroscopically after 24 h for the growth of F. solani. Appropriate control wells without any treatment were included in the study. Peptide were considered to be active if the wells appeared clear without any visible growth of F. solani, and the results were expressed as MIC. The assay was performed in four replicates for each concentration."}, "[8]": {"test_system": "5 microorganisms tested (S. epidermidis, S. aureus, E. coli, P. aeruginosa, C. albicans)", "assay": "Mean MIC over the panel and selectivity index (Example 1)", "assay_type": "cell-based", "procedure": "Red blood cells suspension incubated with PBS was used as negative control."}, "C. albicans biofilm": {"test_system": "C. albicans biofilm", "assay": "Biofilm biomass assay, crystal violet", "assay_type": "cell-based, Candida albicans", "conditions": "500 mg/L, 24 h", "procedure": "The biomass of the biofilms was estimated by a crystal violet staining assay. Briefly, the formed biofilms were first treated with the peptide for 24 h as described above. After aspirating the culture medium, the biofilms were rinsed once with PBS, fixed with methanol for 15 min at room temperature and stained with 100 μL of 0.1% (weight by volume) crystal violet for 10 min. The excess crystal violet dye was removed by rinsing the wells with DI water five times. The dye that is associated with the biofilm was extracted using 100 μL of 33% glacial acetic acid per well, and […] aliquot from each well was transferred to a new 96-well plate for quantification of absorbance at a wavelength of 570 nm using a microplate reader (TECAN, Switzerland). The relative amount of biomass remaining after peptide treatment was expressed as a percentage of the control treated with broth containing 10 vol % of water. Data represented mean±standard deviations of 4 replicates for each concentration."}, "C. albicans keratitis": {"test_system": "C. albicans keratitis", "assay": "Contact lens-associated C. albicans keratitis mouse model"}, "P. aeruginosa [9]": {"test_system": "P. aeruginosa", "conditions": "18 h", "remark": "listed apart in the source"}, "S. epidermidis [10]": {"test_system": "S. epidermidis", "conditions": "18 h", "remark": "listed apart in the source"}, "rabbit red blood cells": {"test_system": "rabbit red blood cells", "assay_type": "cell-based", "conditions": "red cells of rabbit, 1 h"}, "C. albicans [11]": {"test_system": "C. albicans"}, "S. aureus [12]": {"test_system": "S. aureus", "conditions": "18 h", "remark": "listed apart in the source"}, "E. coli [13]": {"test_system": "E. coli", "conditions": "18 h", "remark": "listed apart in the source"}, "C. albicans [14]": {"test_system": "C. albicans", "assay_type": "cell-based, Candida albicans", "conditions": "42 h", "procedure": "as §1"}, "[15]": {"conditions": "topical eye drops, peptides 3000 mg/L, amphotericin B 1000 mg/L"}}, "note": "Like-named read-outs stand apart in the source and are kept apart here. Peptide text beside a SMILES is read from it."}
{"smiles": "CC[C@H](C)[C@H](N)C(=O)N[C@@H](CCCCN)C(=O)N[C@H](C(=O)N[C@@H](CCCCN)C(=O)N[C@H](C(=O)N[C@@H](CCCCN)C(=O)N[C@H](C(=O)N[C@@H](CCCCN)C(N)=O)[C@@H](C)CC)[C@@H](C)CC)[C@@H](C)CC", "note": "[(IKIK)2-NH2] (H-IKIKIKIK-NH2; N-terminus assumed)", "values": [{"measurement": "MIC C. albicans", "setting": "C. albicans [1]", "result": 2.0, "unit": "µg/mL"}, {"measurement": "molecular weight after autoclaving and 6 weeks at room temperature in water", "setting": "[2]", "result": "remained unchanged with no degradation products observed"}, {"measurement": "time after which most fungi were killed", "setting": "C. albicans [3]; at 2×MIC and 4×MIC", "result": 1, "unit": "h"}, {"measurement": "time after which most fungi were killed", "setting": "C. albicans [3]; at MIC", "result": 4, "unit": "h"}, {"measurement": "MIC E. coli", "setting": "E. coli [4]", "result": 31.3, "unit": "µg/mL"}, {"measurement": "MIC S. aureus", "setting": "S. aureus [5]", "result": 125, "unit": "µg/mL"}, {"measurement": "MIC S. epidermidis", "setting": "S. epidermidis [6]", "result": 2.0, "unit": "µg/mL"}, {"measurement": "MIC P. aeruginosa", "setting": "P. aeruginosa [7]", "result": 31.3, "unit": "µg/mL"}, {"measurement": "MIC F. solani", "setting": "F. solani", "result": 31.3, "unit": "µg/mL"}, {"measurement": "GM, geometric mean of MIC values for the 5 microorganisms tested", "setting": "[8]", "result": 38.3, "unit": "µg/mL"}, {"measurement": "biomass of C. albicans biofilm", "setting": "C. albicans biofilm", "result": "decreased significantly"}, {"measurement": "fungal cells eradicated from the biofilms compared to the untreated control group", "setting": "C. albicans keratitis; C. albicans counts in mice cornea, agar plating", "result": "~90", "unit": "%"}, {"measurement": "depth of hyphal invasion into the cornea, PAS histology", "setting": "C. albicans keratitis; [15]", "result": "reduced the maximal depth of hyphal invasion"}, {"measurement": "resolution of the keratitis infection (eye appearance)", "setting": "C. albicans keratitis; [15]", "result": "significant resolution of the keratitis infection"}, {"measurement": "clinical scores of mice corneas (slit lamp)", "setting": "C. albicans keratitis; topical eye drops, peptides 3000 mg/L, amphotericin B 1000 mg/L, P<0.01", "result": "significantly lower than that in the control group"}]}
{"smiles": "CC[C@H](C)[C@H](N)C(=O)N[C@H](C(=O)N[C@@H](CCCNC(=N)N)C(=O)N[C@@H](CCCCN)C(=O)N[C@H](C(=O)N[C@H](C(=O)N[C@@H](CCCNC(=N)N)C(=O)N[C@@H](CCCCN)C(N)=O)[C@@H](C)CC)[C@@H](C)CC)[C@@H](C)CC", "note": "[Control-all L] (H-IIRKIIRK-NH2; N-terminus assumed)", "values": [{"measurement": "MIC P aeruginosa", "setting": "P. aeruginosa [9]", "result": ">500", "unit": "µg/mL"}, {"measurement": "MIC S. epidermidis", "setting": "S. epidermidis [10]", "result": ">500", "unit": "µg/mL"}, {"measurement": "HC10, haemolysis concentration 10%: lowest peptide concentration that induces ≧10% haemolysis", "setting": "rabbit red blood cells", "result": ">2000", "unit": "mg/L"}, {"measurement": "MIC F. solani", "setting": "F. solani", "result": ">500", "unit": "µg/mL"}, {"measurement": "MIC C. albicans", "setting": "C. albicans [11]", "result": 500, "unit": "µg/mL"}, {"measurement": "MIC S. aureus", "setting": "S. aureus [12]", "result": ">500", "unit": "µg/mL"}, {"measurement": "MIC E. coli", "setting": "E. coli [13]", "result": ">500", "unit": "µg/mL"}, {"measurement": "MIC C. albicans", "setting": "C. albicans [14]", "result": ">500", "unit": "µg/mL"}]}
